This passage reports Kd results from ChEMBL document CHEMBL3991601, “The target landscape of clinical kinase drugs” (Science, 2017).

Test [1] deals with Ribosomal protein S6 kinase alpha-1 (Homo sapiens, UniProt Q15418).
The target of test [2] is Mitogen-activated protein kinase 3 (Homo sapiens, UniProt P27361).
Test [3] deals with T1, cGMP-dependent protein kinase 1 (Homo sapiens, UniProt Q13976).
T1 sequence (Q13976 whole entry): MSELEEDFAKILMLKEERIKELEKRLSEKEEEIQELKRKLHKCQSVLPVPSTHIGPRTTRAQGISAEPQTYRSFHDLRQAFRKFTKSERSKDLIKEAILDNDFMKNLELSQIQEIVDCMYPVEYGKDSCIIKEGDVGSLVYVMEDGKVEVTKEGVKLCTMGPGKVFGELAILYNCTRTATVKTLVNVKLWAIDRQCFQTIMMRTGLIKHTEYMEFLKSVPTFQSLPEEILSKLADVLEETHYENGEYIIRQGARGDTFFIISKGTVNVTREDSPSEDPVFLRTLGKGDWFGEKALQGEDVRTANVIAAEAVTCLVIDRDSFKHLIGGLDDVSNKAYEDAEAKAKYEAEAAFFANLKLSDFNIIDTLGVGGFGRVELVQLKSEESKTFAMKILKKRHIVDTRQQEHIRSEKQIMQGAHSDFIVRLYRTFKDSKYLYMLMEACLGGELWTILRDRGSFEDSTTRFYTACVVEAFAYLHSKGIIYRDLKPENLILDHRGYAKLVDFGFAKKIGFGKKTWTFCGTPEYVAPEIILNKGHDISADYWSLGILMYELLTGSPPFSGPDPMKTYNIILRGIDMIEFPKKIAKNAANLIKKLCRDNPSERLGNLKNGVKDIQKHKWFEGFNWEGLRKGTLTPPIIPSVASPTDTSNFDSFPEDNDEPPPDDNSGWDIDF

Test [4] has as its target Midasin (Homo sapiens, UniProt Q9NU22).
Test [5] addresses Dual specificity tyrosine-phosphorylation-regulated kinase 1A (Homo sapiens, UniProt Q13627).
In test [6] the target is Serine/threonine-protein kinase B-raf (Homo sapiens, UniProt P15056).
The target in test [7] is Fibroblast growth factor receptor 1 (Homo sapiens, UniProt P11362).
The target of test [8] is T2, Mitogen-activated protein kinase 15 (Homo sapiens, UniProt Q8TD08).
T2 sequence (Q8TD08 whole entry): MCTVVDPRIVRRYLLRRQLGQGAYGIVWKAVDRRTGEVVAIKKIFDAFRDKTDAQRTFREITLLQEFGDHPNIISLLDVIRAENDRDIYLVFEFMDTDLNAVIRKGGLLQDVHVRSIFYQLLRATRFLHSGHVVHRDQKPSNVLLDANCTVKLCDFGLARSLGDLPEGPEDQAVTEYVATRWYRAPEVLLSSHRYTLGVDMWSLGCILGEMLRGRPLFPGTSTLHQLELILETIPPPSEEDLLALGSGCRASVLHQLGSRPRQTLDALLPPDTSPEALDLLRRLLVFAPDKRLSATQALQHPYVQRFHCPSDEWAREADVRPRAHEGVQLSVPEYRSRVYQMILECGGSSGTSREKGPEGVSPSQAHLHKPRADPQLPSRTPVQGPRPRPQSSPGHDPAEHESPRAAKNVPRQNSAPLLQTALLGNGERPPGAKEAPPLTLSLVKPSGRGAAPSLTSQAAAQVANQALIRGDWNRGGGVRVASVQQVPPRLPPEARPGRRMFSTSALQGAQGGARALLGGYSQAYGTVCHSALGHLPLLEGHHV

In test [9] the target is Adenosine kinase (Homo sapiens, UniProt P55263).
Test [10] addresses T3, Glycine--tRNA ligase (Homo sapiens, UniProt P41250).
T3 sequence (P41250 whole entry): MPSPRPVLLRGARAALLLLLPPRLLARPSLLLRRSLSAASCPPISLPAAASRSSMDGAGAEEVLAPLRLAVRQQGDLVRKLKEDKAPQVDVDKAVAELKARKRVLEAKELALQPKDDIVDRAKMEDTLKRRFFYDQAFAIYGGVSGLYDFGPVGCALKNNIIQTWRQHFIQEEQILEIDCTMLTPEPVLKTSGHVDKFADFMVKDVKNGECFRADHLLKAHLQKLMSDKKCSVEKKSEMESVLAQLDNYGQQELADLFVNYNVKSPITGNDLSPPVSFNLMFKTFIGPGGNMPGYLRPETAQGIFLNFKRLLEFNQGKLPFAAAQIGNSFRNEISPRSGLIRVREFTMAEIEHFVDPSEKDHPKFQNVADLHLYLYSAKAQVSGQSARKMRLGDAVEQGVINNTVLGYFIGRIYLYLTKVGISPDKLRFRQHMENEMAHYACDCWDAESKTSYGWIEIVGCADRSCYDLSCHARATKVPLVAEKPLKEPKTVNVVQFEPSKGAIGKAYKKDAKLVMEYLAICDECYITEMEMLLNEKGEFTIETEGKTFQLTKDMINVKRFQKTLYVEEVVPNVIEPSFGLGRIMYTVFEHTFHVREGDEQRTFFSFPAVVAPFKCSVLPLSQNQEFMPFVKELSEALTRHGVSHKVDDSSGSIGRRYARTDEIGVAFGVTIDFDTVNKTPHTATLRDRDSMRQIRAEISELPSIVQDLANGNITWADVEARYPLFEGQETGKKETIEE

Calls of active or inactive are those of the source.
Further: in the data inactive means no Kd found up to 30 µM.

Sequence of Serine/threonine-protein kinase B-raf (P15056 whole entry): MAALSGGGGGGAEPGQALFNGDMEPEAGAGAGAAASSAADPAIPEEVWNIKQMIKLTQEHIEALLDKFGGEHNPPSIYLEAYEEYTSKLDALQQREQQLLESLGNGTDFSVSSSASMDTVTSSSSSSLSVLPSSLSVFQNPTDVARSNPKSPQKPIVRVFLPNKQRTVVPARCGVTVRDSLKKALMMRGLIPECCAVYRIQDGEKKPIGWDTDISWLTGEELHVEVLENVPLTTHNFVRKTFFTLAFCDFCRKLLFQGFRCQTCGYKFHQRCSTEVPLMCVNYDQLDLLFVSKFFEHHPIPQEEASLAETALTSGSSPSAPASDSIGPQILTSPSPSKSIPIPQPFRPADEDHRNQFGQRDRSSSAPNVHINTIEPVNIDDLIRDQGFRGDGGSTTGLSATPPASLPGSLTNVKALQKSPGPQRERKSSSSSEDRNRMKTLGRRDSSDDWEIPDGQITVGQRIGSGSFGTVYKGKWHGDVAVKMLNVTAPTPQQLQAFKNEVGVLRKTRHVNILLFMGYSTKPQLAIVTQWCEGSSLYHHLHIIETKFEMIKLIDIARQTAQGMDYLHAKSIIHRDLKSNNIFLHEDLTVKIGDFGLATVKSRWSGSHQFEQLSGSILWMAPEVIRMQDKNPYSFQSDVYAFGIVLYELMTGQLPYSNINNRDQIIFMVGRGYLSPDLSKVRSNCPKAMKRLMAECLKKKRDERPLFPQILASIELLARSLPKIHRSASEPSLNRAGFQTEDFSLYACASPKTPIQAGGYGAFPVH
Sequence of Ribosomal protein S6 kinase alpha-1 (Q15418 whole entry): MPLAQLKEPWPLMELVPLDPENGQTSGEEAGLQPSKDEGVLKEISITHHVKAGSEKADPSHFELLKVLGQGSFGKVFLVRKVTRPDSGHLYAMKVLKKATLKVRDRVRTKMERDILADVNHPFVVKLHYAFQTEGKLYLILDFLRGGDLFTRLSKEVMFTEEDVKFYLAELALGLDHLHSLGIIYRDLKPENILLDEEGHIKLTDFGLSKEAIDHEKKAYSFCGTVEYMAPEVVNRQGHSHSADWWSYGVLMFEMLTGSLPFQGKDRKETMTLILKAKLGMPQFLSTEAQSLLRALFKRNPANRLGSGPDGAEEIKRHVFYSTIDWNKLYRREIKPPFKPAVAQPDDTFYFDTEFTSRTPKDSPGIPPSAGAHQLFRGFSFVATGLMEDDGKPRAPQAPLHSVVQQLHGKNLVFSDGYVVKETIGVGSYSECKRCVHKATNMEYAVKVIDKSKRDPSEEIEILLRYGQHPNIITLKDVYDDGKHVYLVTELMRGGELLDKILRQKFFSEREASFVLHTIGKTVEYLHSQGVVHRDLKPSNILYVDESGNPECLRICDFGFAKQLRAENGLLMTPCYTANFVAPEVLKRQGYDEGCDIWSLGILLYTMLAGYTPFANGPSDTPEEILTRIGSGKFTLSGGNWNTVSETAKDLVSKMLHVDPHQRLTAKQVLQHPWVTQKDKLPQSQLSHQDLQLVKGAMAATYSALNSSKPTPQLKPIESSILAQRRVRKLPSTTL
Sequence of Adenosine kinase (P55263 whole entry): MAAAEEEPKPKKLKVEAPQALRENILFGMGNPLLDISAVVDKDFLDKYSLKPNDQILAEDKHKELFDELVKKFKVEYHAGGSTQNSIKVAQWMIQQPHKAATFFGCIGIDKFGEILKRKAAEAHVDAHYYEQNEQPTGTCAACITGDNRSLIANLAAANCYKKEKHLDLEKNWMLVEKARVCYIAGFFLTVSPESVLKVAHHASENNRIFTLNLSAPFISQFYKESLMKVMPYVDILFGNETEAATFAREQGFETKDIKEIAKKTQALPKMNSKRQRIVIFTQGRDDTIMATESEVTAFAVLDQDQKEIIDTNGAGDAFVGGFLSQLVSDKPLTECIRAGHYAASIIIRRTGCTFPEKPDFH
Sequence of Mitogen-activated protein kinase 3 (P27361 whole entry): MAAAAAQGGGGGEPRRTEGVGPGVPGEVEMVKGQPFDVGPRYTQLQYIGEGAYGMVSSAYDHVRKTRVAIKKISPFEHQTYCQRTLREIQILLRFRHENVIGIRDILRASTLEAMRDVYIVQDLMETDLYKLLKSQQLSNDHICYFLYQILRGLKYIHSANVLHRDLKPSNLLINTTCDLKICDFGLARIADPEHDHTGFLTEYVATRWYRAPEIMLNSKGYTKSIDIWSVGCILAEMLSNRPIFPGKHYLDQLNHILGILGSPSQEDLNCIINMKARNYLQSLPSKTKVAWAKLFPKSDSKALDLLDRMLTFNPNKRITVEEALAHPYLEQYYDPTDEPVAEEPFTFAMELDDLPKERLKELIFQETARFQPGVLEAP
Sequence of Fibroblast growth factor receptor 1 (P11362 whole entry): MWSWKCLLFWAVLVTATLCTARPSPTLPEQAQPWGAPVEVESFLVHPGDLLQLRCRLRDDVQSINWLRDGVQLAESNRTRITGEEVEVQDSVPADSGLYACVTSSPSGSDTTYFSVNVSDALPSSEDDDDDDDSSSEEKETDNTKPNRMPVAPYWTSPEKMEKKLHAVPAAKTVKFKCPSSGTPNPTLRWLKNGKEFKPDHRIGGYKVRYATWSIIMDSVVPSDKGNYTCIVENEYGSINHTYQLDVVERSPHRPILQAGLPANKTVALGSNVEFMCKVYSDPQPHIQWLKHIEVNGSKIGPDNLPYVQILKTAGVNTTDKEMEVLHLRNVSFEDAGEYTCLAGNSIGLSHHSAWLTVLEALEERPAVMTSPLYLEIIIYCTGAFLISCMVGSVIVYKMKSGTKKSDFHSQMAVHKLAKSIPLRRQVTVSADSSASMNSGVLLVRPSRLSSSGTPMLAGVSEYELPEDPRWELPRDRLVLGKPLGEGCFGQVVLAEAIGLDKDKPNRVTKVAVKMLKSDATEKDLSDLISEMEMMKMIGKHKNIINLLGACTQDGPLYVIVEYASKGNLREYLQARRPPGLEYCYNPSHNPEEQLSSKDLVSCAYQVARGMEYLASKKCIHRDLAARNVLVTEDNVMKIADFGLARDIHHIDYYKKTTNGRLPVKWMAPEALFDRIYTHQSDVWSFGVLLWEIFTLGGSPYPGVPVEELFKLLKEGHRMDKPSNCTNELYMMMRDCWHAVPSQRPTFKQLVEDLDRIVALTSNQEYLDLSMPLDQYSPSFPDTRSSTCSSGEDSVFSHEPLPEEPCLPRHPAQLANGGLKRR

As a reminder, the Kd is the free concentration of one partner at which half of the binding sites on the other are occupied at equilibrium, for simple one-to-one binding. In the case of `S=C(NCc1ccc2c(c1)OCO2)N1CCN(c2ncnc3c2oc2ccccc23)CC1` [AMUVATINIB], the Kd in test [1], in [2], in [3], in [4], in test [5] and in test [6] was > 30 µM (inactive) in each case. The Kd in test [7], in [8], in test [9] and in test [10] was > 30 µM (inactive) in each case.
Regarding `O[C@H]1CC[C@H](Nc2ncc3nc(Nc4c(F)cc(F)cc4F)n([C@H]4CCOC4)c3n2)CC1` [TANZISERTIB], the Kd was > 30 µM (inactive) in [1]; 3.69 µM (active) in test [2]; > 30 µM (inactive) in test [3]; > 30 µM (inactive) in [4]; > 30 µM (inactive) in test [5]; > 30 µM (inactive) in test [6]. Also, the Kd in test [7], in [8], in test [9] and in test [10] was > 30 µM (inactive) throughout.
Take `COc1cccc2cc(-c3nc([C@H]4CC[C@H](C(=O)O)CC4)n4ncnc(N)c34)[nH]c12` [OSI-027]: the Kd in test [1], in test [2], in test [3], in test [4], in test [5] and in [6] was > 30 µM (inactive) each time. Moreover, the Kd in [7], in [8], in [9] and in test [10] was > 30 µM (inactive) in each case.
Consider `O=c1[nH]c([C@@H]2CCCN2)nc2c1oc1ccc(Cl)cc12`, for which the Kd is > 30 µM (inactive) in [1]; > 30 µM (inactive) in [2]; > 30 µM (inactive) in test [3]; > 30 µM (inactive) in test [4]; 0.04 µM in [5]; > 30 µM (inactive) in [6]. The Kd in test [7], in test [8], in [9] and in test [10] was > 30 µM (inactive) throughout.
For `O=C(Nc1ccc(OC(F)(F)F)cc1)c1sccc1NCc1ccnc2ccccc12` [OSI-930], the Kd in test [1], in test [2], in test [3], in test [4], in test [5] and in test [6] was > 30 µM (inactive) throughout. The Kd in test [7], in [8], in [9] and in [10] was > 30 µM (inactive) in each case.
Consider `CC[C@@](C)(Nc1ccnc(-c2c[nH]c3ncccc23)n1)C(=O)NCC(F)(F)F` [DECERNOTINIB], for which the Kd in test [1], in test [2], in [3], in test [4], in test [5] and in test [6] was > 30 µM (inactive) in each case. Besides, the Kd in test [7], in test [8], in [9] and in test [10] was > 30 µM (inactive) in each case.
As for `CN1CCN(c2nc(C3=C(c4c[nH]c5ccccc45)C(=O)NC3=O)c3ccccc3n2)CC1` [SOTRASTAURIN], the Kd in [1], in test [2], in [3], in test [4], in test [5] and in [6] was > 30 µM (inactive) throughout. The Kd in test [7], in [8], in [9] and in test [10] was > 30 µM (inactive) in each case.
As for `C[C@@H]1COC(Nc2ccc3ncnc(Nc4ccc(OCc5nccs5)c(Cl)c4)c3c2)=N1` [VARLITINIB], the Kd in [1], in [2], in test [3], in test [4], in test [5] and in [6] was > 30 µM (inactive) in each case. Moreover, the Kd in test [7], in test [8], in [9] and in test [10] was > 30 µM (inactive) each time.
With `NC(=O)c1ccc(N(C(N)=O)c2c(F)cccc2F)nc1-c1ccc(F)cc1F` [VX-702], the Kd in [1], in [2], in test [3], in test [4], in [5] and in [6] was > 30 µM (inactive) throughout. Further, the Kd in test [7], in test [8], in test [9] and in [10] was > 30 µM (inactive) each time.
Regarding `C=CC(=O)Nc1cc(Nc2nccc(-c3cn(C)c4ccccc34)n2)c(OC)cc1N(C)CCN(C)C` [OSIMERTINIB], the Kd in test [1], in test [2], in test [3], in test [4], in test [5] and in test [6] was > 30 µM (inactive) each time. The Kd in test [7], in test [8], in test [9] and in test [10] was > 30 µM (inactive) throughout.
Consider `C=CCN(/C=C1/C(=O)O[C@H](COC)[C@@]2(C)C1=C(O)C(=O)C1=C2[C@H](OC(C)=O)C[C@]2(C)C(=O)CC[C@@H]12)CC=C` [SONOLISIB], for which the Kd in test [1], in [2], in [3], in [4], in test [5] and in test [6] was > 30 µM (inactive) in each case. Further, the Kd in test [7], in [8], in test [9] and in test [10] was > 30 µM (inactive) throughout.
Consider `CC1(COc2ccc3c(c2)ncn3-c2ccc3cccc(N4CCC(N)CC4)c3n2)COC1` [CRENOLANIB], for which the Kd in test [1] was > 30 µM (inactive); in test [2], > 30 µM (inactive); in test [3], > 30 µM (inactive); in test [4] it was > 30 µM (inactive); in [5] it was 4.97 µM (active); in test [6], > 30 µM (inactive). The Kd in test [7], in [8] and in [9] was > 30 µM (inactive) each time.
